From paper PMC8213057, “Targeting ALK2: An Open Science Approach to Developing Therapeutics for the Treatment of Diffuse Intrinsic Pontine Glioma” (Journal of Medicinal Chemistry, 2020)

Key:
CK1a1 = CK1a1 (Homo sapiens, UniProt P48729); conditions: 1 μM; Run 1, Run 2
WNK2 = WNK2 (Homo sapiens, UniProt Q9Y3S1); conditions: 1 μM; Run 1, Run 2
CDK4/cyclin D1 = CDK4/cyclin D1 (Homo sapiens, UniProt P11802); conditions: 1 μM; Run 1, Run 2
DRAK1/STK17A = molecular target: T1, DRAK1/STK17A (Homo sapiens, UniProt Q9UEE5); assay: biochemical; conditions: read-out: % enzyme activity, 1 μM; Run 1, Run 2
T1 sequence (Q9UEE5 1-414): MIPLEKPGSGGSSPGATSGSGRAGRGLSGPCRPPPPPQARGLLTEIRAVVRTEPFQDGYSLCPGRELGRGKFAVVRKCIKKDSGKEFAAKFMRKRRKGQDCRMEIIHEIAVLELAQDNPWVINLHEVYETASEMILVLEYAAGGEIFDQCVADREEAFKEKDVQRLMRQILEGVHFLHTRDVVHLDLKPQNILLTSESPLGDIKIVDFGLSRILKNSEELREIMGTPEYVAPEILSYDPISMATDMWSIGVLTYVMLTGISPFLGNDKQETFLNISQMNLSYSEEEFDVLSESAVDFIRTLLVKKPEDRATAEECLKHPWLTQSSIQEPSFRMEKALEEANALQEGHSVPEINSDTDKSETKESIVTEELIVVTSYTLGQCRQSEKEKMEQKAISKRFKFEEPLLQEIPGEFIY

MELK = MELK (Homo sapiens, UniProt Q14680); conditions: 1 μM; Run 1, Run 2
DYRK1/DYRK1A = DYRK1/DYRK1A (Homo sapiens, UniProt Q13627); assay: biochemical; conditions: read-out: % enzyme activity, 1 μM; Run 1, Run 2
LATS2 = molecular target: T2, LATS2 (Homo sapiens, UniProt Q9NRM7); assay: biochemical; conditions: read-out: % enzyme activity, 1 μM; Run 1, Run 2
T2 sequence (Q9NRM7 1-1088): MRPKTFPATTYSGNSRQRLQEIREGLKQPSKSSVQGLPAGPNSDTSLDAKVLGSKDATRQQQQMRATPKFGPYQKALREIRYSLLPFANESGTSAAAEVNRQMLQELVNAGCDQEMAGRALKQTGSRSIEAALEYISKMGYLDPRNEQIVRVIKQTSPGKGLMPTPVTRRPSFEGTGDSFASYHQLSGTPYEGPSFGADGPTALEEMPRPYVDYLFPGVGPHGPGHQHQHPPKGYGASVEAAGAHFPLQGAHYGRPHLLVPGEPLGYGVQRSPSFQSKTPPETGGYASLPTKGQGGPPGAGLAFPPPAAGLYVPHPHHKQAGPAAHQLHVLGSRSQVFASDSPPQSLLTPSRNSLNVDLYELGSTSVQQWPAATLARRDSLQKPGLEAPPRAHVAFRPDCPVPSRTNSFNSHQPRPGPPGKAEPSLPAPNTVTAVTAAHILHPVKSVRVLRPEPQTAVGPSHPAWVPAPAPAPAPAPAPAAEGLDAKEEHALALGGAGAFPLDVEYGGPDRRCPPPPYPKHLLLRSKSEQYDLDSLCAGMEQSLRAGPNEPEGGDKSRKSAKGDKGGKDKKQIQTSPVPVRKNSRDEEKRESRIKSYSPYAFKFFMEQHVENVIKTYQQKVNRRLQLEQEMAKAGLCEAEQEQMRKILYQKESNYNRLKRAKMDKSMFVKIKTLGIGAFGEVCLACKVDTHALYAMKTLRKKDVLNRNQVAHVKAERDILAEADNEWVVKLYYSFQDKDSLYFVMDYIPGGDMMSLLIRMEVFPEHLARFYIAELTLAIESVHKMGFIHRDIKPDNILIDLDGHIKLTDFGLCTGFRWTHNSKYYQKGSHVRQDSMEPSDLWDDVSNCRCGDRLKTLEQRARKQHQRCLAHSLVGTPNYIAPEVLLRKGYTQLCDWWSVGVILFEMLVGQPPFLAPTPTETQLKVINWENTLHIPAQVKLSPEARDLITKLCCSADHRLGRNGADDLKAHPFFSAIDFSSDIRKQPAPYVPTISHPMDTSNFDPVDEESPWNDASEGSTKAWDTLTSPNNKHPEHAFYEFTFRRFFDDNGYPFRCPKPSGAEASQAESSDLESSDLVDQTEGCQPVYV

CAMK2b = CAMK2b (Homo sapiens, UniProt Q13554); conditions: 1 μM; Run 1, Run 2
MYLK4 = molecular target: T3, MYLK4 (Homo sapiens, UniProt Q86YV6); conditions: 1 μM; Run 1, Run 2
T3 sequence (Q86YV6 1-388): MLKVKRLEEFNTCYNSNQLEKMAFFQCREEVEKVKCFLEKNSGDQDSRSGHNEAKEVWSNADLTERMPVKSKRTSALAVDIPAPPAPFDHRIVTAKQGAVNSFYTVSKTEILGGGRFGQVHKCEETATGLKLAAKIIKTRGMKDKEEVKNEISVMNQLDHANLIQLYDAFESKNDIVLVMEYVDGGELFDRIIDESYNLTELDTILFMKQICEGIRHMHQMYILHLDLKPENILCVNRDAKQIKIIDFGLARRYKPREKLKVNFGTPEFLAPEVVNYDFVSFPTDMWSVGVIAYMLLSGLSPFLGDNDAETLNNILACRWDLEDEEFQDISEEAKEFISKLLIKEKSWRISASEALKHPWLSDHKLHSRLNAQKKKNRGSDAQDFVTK

MRCKa/CDC42BPA = MRCKa/CDC42BPA (Homo sapiens, UniProt Q5VT25); conditions: 1 μM; Run 1, Run 2

Chain of CK1a1 (P48729 whole entry): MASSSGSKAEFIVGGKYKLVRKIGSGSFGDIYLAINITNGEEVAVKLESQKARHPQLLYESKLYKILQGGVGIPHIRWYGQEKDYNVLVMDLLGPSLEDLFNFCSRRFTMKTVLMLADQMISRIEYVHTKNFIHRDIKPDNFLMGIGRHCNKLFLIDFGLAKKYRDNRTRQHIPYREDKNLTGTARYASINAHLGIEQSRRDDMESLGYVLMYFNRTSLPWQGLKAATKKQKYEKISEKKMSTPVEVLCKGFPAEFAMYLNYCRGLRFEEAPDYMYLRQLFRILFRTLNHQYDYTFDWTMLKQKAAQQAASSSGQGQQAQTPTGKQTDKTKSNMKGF
Chain of WNK2 (Q9Y3S1 whole entry, species assumed): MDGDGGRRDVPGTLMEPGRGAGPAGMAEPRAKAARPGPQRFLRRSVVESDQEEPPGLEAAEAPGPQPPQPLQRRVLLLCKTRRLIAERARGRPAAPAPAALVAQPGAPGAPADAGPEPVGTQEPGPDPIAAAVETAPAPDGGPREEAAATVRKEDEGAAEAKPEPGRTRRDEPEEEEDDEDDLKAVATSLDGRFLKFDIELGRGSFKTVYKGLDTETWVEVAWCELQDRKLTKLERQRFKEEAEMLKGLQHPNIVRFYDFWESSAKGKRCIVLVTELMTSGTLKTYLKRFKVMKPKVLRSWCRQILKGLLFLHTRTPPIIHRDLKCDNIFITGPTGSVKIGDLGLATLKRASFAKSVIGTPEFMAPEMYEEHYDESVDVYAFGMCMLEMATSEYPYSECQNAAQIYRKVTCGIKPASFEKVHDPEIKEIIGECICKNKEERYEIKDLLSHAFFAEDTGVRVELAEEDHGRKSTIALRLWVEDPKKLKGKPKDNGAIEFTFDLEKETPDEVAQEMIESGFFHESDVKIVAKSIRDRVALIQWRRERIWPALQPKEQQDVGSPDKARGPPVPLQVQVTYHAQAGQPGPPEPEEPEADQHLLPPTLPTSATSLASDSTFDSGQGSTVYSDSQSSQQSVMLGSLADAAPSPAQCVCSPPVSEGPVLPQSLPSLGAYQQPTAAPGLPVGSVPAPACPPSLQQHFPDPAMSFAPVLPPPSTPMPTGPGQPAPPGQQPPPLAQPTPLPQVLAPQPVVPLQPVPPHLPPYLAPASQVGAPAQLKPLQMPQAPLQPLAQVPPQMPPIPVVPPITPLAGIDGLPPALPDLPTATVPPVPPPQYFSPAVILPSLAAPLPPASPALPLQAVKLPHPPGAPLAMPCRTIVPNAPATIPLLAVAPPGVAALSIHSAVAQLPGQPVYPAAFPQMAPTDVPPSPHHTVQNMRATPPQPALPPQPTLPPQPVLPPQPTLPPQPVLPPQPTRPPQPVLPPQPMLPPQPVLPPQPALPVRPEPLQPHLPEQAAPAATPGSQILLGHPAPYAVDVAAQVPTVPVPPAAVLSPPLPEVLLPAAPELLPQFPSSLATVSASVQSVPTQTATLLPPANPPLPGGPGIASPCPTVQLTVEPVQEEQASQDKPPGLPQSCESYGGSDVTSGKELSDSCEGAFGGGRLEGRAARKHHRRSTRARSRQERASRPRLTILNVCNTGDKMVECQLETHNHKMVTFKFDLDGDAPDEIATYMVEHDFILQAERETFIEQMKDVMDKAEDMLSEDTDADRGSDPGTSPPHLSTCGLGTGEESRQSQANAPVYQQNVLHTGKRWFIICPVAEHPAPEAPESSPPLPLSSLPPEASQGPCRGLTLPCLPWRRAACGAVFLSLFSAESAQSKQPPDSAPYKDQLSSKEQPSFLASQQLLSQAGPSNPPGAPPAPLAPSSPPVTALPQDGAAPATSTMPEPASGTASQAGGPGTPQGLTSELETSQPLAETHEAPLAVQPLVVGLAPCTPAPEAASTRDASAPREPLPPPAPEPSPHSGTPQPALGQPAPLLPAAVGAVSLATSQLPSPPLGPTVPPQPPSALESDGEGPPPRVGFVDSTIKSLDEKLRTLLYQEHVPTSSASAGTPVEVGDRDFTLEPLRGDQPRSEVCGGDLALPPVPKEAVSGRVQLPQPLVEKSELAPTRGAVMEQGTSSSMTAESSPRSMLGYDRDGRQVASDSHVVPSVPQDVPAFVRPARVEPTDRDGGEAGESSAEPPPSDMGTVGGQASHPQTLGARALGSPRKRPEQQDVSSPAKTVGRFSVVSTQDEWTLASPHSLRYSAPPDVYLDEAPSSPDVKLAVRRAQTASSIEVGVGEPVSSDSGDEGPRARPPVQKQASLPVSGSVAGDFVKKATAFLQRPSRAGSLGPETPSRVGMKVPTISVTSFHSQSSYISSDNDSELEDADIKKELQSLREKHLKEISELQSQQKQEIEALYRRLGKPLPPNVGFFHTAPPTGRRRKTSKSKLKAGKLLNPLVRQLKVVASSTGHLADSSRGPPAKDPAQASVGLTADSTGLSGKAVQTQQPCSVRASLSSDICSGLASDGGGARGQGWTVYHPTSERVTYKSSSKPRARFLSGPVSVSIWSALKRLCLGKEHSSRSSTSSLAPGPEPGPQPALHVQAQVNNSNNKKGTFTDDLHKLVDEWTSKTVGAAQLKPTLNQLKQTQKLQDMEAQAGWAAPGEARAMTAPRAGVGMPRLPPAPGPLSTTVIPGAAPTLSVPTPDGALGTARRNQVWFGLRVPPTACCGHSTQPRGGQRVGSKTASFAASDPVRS
Chain of CAMK2b (Q13554 whole entry): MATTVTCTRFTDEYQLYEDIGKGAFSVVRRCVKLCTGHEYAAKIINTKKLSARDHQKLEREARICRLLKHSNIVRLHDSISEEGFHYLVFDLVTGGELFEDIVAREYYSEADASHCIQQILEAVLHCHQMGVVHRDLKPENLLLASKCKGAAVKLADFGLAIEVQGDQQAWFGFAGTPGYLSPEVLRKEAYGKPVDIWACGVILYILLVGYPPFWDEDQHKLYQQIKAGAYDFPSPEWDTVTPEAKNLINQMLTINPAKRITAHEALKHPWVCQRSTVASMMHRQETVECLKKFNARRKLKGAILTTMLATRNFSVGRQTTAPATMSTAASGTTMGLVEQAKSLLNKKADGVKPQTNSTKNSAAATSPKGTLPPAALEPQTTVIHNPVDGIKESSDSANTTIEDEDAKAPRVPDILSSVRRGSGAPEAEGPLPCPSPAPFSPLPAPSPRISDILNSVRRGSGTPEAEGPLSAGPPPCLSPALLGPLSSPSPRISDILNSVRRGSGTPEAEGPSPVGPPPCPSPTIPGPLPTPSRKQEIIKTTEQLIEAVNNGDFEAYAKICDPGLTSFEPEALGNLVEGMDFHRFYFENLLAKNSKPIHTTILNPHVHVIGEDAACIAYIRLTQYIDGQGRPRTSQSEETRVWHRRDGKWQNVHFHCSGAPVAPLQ
Chain of MELK (Q14680 whole entry): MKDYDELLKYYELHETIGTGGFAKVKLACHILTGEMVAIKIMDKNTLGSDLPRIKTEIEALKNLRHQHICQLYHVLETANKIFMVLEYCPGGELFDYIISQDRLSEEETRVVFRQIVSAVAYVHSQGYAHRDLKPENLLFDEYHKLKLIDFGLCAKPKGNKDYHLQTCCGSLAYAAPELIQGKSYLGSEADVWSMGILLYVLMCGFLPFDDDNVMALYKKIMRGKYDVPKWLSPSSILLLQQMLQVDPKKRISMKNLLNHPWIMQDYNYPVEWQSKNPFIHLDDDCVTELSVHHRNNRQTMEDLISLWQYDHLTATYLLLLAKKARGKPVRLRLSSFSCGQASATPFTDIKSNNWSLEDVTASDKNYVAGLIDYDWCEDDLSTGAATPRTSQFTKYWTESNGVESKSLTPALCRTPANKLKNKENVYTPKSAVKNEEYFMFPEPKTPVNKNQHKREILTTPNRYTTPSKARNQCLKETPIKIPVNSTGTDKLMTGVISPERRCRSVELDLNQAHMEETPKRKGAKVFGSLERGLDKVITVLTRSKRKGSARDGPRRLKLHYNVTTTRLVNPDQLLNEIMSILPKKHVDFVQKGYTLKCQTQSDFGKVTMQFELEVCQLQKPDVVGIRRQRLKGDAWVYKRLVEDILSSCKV
Chain of CDK4/cyclin D1 (P11802 whole entry): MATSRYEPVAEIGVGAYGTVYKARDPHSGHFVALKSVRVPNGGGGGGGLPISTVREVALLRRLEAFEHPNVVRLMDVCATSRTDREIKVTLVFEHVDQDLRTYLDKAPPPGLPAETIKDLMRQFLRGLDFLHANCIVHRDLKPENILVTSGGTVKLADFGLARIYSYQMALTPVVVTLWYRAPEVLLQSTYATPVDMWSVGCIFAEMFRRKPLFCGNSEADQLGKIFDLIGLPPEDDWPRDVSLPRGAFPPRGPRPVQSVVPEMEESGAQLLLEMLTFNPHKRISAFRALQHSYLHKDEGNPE
Chain of CDK4/cyclin D1 (P24385 whole entry partner): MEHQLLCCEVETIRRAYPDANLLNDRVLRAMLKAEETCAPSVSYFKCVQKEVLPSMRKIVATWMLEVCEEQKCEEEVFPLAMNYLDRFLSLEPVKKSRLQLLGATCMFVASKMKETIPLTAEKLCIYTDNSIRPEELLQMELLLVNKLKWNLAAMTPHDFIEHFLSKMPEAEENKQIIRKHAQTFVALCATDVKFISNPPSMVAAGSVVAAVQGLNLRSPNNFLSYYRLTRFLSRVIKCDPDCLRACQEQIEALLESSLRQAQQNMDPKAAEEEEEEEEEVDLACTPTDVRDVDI

COc1cc(-c2cncc(-c3ccc(N4CCN(C)CC4)cc3)c2C)cc(F)c1C(N)=O [Compound 26a, 2-Fluoro-6-methoxy-4-(4-methyl-5-(4-(4-methylpiperazin-1-yl)phenyl)pyridin-3-yl)benzamide]
% enzyme activity (CK1a1): 91.31%
% enzyme activity (WNK2): 95.09%
% enzyme activity (CDK4/cyclin D1): 98.46%
remaining activity at 1 µM (DRAK1/STK17A): 96.4%
% enzyme activity (MELK): 98.82%
remaining activity at 1 µM (DYRK1/DYRK1A): 43.3%
remaining activity at 1 µM (LATS2): 106%
% enzyme activity (CAMK2b): 83.40%
% enzyme activity (MYLK4): 95.79%
% enzyme activity (MRCKa/CDC42BPA): 102.07%

COc1cc(-c2cncc(-c3ccc(N4C[C@@H](C)N(C)[C@@H](C)C4)cc3)c2C)cc(F)c1C(N)=O [Compound 26c, 2-Fluoro-6-methoxy-4-(4-methyl-5-(4-((3R,5S)-3,4,5-trimethylpiperazin-1-yl)phenyl)pyridin-3-yl)benzamide]
% enzyme activity (CK1a1): 99.44%
% enzyme activity (WNK2): 93.64%
% enzyme activity (CDK4/cyclin D1): 100.29%
remaining activity at 1 µM (DRAK1/STK17A): 96.6%
% enzyme activity (MELK): 99.30%
remaining activity at 1 µM (DYRK1/DYRK1A): 62.4%
remaining activity at 1 µM (LATS2): 102%
% enzyme activity (CAMK2b): 91.32%
% enzyme activity (MYLK4): 102.67%
% enzyme activity (MRCKa/CDC42BPA): 104.72%
